# What was measured:
# [1] = tested on: UPR induction (CHOP and ATF4 mRNA) in HEK293T cells; assay: UPR induction by thapsigargin in HEK293T cells, CHOP and ATF4 mRNA by qPCR; format: cell-based; conditions: HEK293T cells pretreated with ISRIB vs control formulation, then 1 micromolar thapsigargin
# Description: In another experiment, HEK293T cells were pretreated with a control formulation or ISRIB, […], then exposed […] to 1 micromolar thapsigargin for 2 hours. CHOP and ATF4 mRNA levels were then assessed by qPCR.
# [2] = tested on: wild type mice exposed to damaging noise; assay: Noise-induced hearing loss in wild type mice, ABR threshold; format: in vivo, mouse; conditions: 2.5 mg/kg intraperitoneal 4 hours before damaging noise, treated vs untreated (FIG. 9, N=3)
# Description: FIG. 9 depicts ABR threshold to click, 8 kHz, and 16 kHz stimuli in mice treated with ISRIB (dotted line, N=3)) compared with vehicle (solid line, N=3). All values are means with error bars indicating the standard error of the mean.
# Wild type mice were subjected to the same treatment and cochleae were subsequently removed and apoptotic ER response gene expression was assessed.
# ISRIB was delivered […] via intraperitoneal injection 4 hours before exposure to damaging noise, at 2.5 mg/kg.
# [3] = tested on: SERCA2b; cochlear explants from TMTC4 KO and wild type mice; assay: UPR stress pathway and Caspase 3 mRNA in cochlear explants treated with thapsigargin; format: cell-based, mouse; conditions: thapsigargin treated cochlear explants from TMTC4 KO and wild type mice (FIG. 2)
# Description: FIG. 2. SYBR Green measurement of qPCR product measuring RNA expression of spliced X-box binding protein 1 (S-XBP1), the molecular chaperone BiP, the pro-apoptotic protein CHOP, and Caspase 3 in cochlear explants from mice. WT=wild type and KO=TMTC4 knockout mice. +TG indicates explants treated with the SERCA2b inhibitor thapsigargin. In another experiment, cochlear explants from TMTC4 KO and wild type mice were extracted. One group of explants was treated with the SERCA2b inhibitor thapsigargin. The expression of UPR stress pathway genes S-XBP1 BiP, CHOP, and the apoptotic gene Caspase 3 were measured by mRNA quantification (FIG. 2). In the untreated explants, the expression of the UPR stress response markers and of Caspase3 were about equal.
# [4] = tested on: SERCA2b; fibroblast cells from TMTC4 KO and wild type mice; assay: UPR stress pathway gene mRNA in fibroblasts treated with thapsigargin; format: cell-based, mouse; conditions: TMTC4 KO compared to wild type cells
# Description: Fibroblast cells were generated from TMTC4 KO mice and wild type mice. One group of cells was treated with the SERCA2b inhibitor thapsigargin. The expression of UPR stress pathway genes spliced X-box binding protein 1 (S-XBP1), the molecular chaperone BiP, and the pro-apoptotic protein CHOP were measured by mRNA quantification. The expression of the UPR stress response markers was low and was about equal in untreated wild type and TMTC4 KO cells.
# [5] = tested on: wild type fibroblasts (ER Ca2+); assay: Ca2+ quantification in intracellular compartments of fibroblasts by Mag-FURA-2 imaging; format: cell-based, mouse; conditions: ten minutes with 1 micromolar ATP and 1 micromolar thapsigargin
# Description: In one experiment, quantification of Ca2^+ was performed in intracellular compartments of fibroblasts by Mag-FURA-2 imaging. In wild type fibroblasts, an area of high Ca2^+ concentration in the perinuclear region corresponding to the ER was observed. […] Quantification of the Ca2^+ gradient between ER and cytosol compartments in fibroblasts was also measured in both wild type and TMTC4 KO mice.
SMILES,ATF4 mRNA expression [1],CHOP mRNA expression [1],ABR threshold to clicks at 8 kHz and 16 kHz [2],"expression of UPR stress response markers (S-XBP1, BiP, CHOP) and Caspase 3 mRNA [3]","expression of UPR stress response markers (S-XBP1, BiP, CHOP) mRNA [4]",Ca2+ concentration of perinuclear region (ER) [5]
"O=C(COc1ccc(Cl)cc1)N[C@H]1CC[C@H](NC(=O)COc2ccc(Cl)cc2)CC1 [ISRIB, trans-N,N′-(cyclohexane-1,4-diyl)bis(2-(4-chlorophenoxy)acetamide)]",significant and substantial reduction,significant and substantial reduction,lower in treated mice than in untreated mice,–,–,–
C/C=C(/C)C(=O)O[C@H]1C(C)=C2[C@H]([C@@H]1OC(=O)CCCCCCC)[C@@](C)(OC(C)=O)C[C@H](OC(=O)CCC)[C@@]1(O)[C@H]2OC(=O)[C@@]1(C)O [thapsigargin],–,–,–,substantially elevated,substantially elevated in the TMTC4 KO cells compared to wild type cells,reduced to that observed in the surrounding cytosol

# From patent publication US11957655B2, “Methods of treating hearing loss” (The Regents of the University of California, priority 2015, dated 2024)
